Assay results from patent US8691498B2, “Methods of screening for a compound that reduces atherogenesis” (Arena Pharmaceuticals, Inc., priority 2005, dated 2014).
Each block holds one compound with its values, some of them ahead of it.

Tests used:
GPR88 = GPR88 (Homo sapiens, UniProt Q9GZN0); experiment: EC50 at GPR88 (selectivity, data not shown); format: cell-based; conditions: for EC50: not shown; for selectivity for GPR84 over GPR88: concluded from EC50 at GPR84 and GPR88
GPR84 [1] = molecular target: T1, GPR84 (Homo sapiens, UniProt Q9NQS5); experiment: Cyclase (cAMP Flashplate) assay in 293 cells transfected with GPR84; format: cell-based; conditions: 1 hr treatment
From the text: Thyroid-stimulating hormone (TSH, or thyrotropin) receptor (TSHR) causes the accumulation of intracellular cAMP on activation by its ligand TSH. An effective technique for measuring the decrease in production of cAMP corresponding to activation of a Gi-coupled receptor is to co-transfect TSHR with the Gi-coupled receptor and to carry out the assay in the presence of TSH to raise the level of basal cAMP, whereby TSHR acts as a “signal window enhancer.” Such an approach was used here. Cyclase assay of GPR84 activity was carried out. 293 cells were transfected with either vector alone or vector containing polynucleotide encoding GPR84.

[2] = tested on: ABCA1 mRNA in human macrophage; experiment: Steady-state ABCA1 mRNA level in human macrophage (TaqMan); format: cell-based; conditions: human monocyte-derived macrophage, 24 hours
Protocol: Macrophages were derived from monocytes as previously indicated. […] Vehicle was dimethyl sulfoxide (DMSO); the final concentration of DMSO in the culture was 0.1% (v/v). Total RNA was extracted from the cells and analyzed by TaqMan analysis as previously indicated to assess steady-state ABCA1 mRNA level. Data are the average and SD of three replicates. The qPCR reactions were prepared from the cDNA using the Bio-Rad qPCR kit, following the manufacturer's protocol. The qPCR reactions were performed using the ABI Prism 7900HT machine with the following temperatures and times: 50° C.—2 min, 95° C.—10 min followed by 40 cycles of 95° C.—15 sec and 60° C.—1 min.

[3] = tested on: MCP-1 mRNA in human macrophage; experiment: Steady-state MCP-1 mRNA level in human macrophage (microarray); format: cell-based; conditions: 10 μM, 24 hours
Protocol: (§1) Human peripheral blood monocytes were isolated from buffy coat by dextran and ficoll purification. Monocytes were then purified using a monocyte isolation kit from Miltenyi Biotec. Monocytes were cultured for 7 days with 10 ng/ml GM-CSF to derive macrophage cells. […] MCP-1 and IL-8 steady-state mRNA levels were assessed by microarray analysis. Vehicle was dimethyl sulfoxide (DMSO); the final concentration of DMSO in the culture was 0.1% (v/v). Expression levels are the average and SD of two replicates.

[4] = tested on: IL-8 mRNA in human macrophage; experiment: Steady-state IL-8 mRNA level in human macrophage (microarray); format: cell-based; conditions: 10 μM, 24 hours
Protocol: as §1

[5] = tested on: TNFα secretion by human macrophage; experiment: TNFα secretion by human macrophage (ELISA); format: cell-based; conditions: 10 μM for 24 hrs, absence or presence of LPS
Protocol: Human peripheral blood monocytes were isolated from buffy coat by dextran and ficoll purification. Monocytes were then purified using a monocyte isolation kit from Miltenyi Biotec. Monocytes were cultured for 7 days with 10 ng/ml GM-CSF to derive macrophage cells. […] Vehicle was dimethyl sulfoxide (DMSO); the final concentration of DMSO in the culture was 0.1% (v/v). Cells were then stimulated with the indicated concentrations of LPS for 24 hours. Supernatants were collected and TNFα levels were assayed using a human specific TNFα ELISA kit from Biosource.

[6] = tested on: TNFα secretion by mouse macrophage cell line RAW; experiment: TNFα secretion by mouse macrophage cell line RAW (ELISA); format: cell-based; conditions: RAW cells, 1 μM for 24 hours, absence or presence of LPS
Protocol: RAW cells were cultured to subconfluency. […] Vehicle was dimethyl sulfoxide (DMSO); the final concentration of DMSO in the culture was 0.1% (v/v). Cells were then stimulated with the indicated concentrations of LPS for 24 hours. Supernatants were collected and TNFα levels were assayed using a mouse specific TNFα ELISA kit from Biosource.

GPR84 [7] = molecular target: T1, GPR84; experiment: IP3 assay in 293 cells transfected with GPR84, with or without Gq(del)/Gi chimeric G protein; format: cell-based; design: expressed in transfected cells; host or cells: 293 cells comprising or not comprising Gq(del)/Gi; conditions: 293 cells comprising Gq(del)/Gi chimeric G protein, 10 μM, 3 hrs
Protocol: IP3 Assay of GPR84 activity was carried out. 293 cells were transfected with either vector alone or vector containing polynucleotide encoding GPR84. […] 24 hrs after transfection, cells were plated into 96 well plates, labeled overnight with ^3H-myoinositol.

GPR84 [8] = molecular target: T1, GPR84; experiment: Melanophore pigment aggregation assay, melanophores transiently transfected with human GPR84; format: cell-based; design: Full-Length Cloning of Endogenous Human GPR84; expressed in transfected cells; host or cells: melanophores (transient transfection); conditions: representative melanophore assay, one hour incubation
From the text: Melatonin activates an endogenous Gi-coupled receptor in the melanophores and causes them to aggregate their pigment. […] If the receptor were either a Gs or Gq coupled receptor, then the melatonin-aggregated melanophores would undergo pigment dispersion. In contrast, if the receptor was a Gi-coupled receptor, then the pigment-dispersed cells would be expected to undergo a dose-dependent pigment aggregation.

[9] = tested on: GPR84 mRNA in human monocytes; experiment: GPR84 mRNA expression in primary human monocytes (QRT-PCR); format: cell-based; conditions: overnight
From the text: Peripheral blood leukocytes were separated from erythrocytes by sedimentation in a dextran containing saline solution. The leukocytes were washed, and mononuclear cells were isolated on a Ficoll density gradient. Peripheral blood mononuclear cells were then washed and negatively selected using a MACS® monocyte isolation kit II (Miltenyi Biotec, Auburn, Calif.) and LS MACS® cell separation columns according to manufacturer's instructions. Freshly isolated monocytes were then resuspended in culture medium alone or culture medium supplemented with TNFα (10 ng/ml) or IFNγ (10 or 100 ng/ml) and allowed to adhere to wells precoated with vitronectin. Cultures were harvested at the indicated times. GPR84 TaqMan analysis was performed essentially as described in Part A of Example 15, infra. Multiple replicates were obtained from different individual donors. Data are expressed as the mean of the ratio of the GPR84 signal to the HS9 (Human ribosomal protein S9, housekeeping gene) signal±SEM.

GPR84 [10] = molecular target: T1, GPR84; experiment: GTPγS binding assay with membranes from GPR84 transfected CHO-KI cells; format: biochemical; conditions: not shown
Protocol: GTPγS assay of GPR84 activity was carried out. Membranes prepared from GPR84 transfected CHO-KI cells were dissolved in binding buffer (20 mM HEPES, pH 7.4, 100 mM NaCl, 10 mM MgCl2) and homogenized briefly using a polytron. Membrane protein concentration was determined by Bradford assay and the membranes were diluted to 0.4 mg/ml in binding buffer. […] Binding was allowed to proceed for one hour before centrifuging the plates at room temperature to pellet the membrane and subsequent counting in a TopCount scintillation counter.

T1 sequence (Q9NQS5 whole entry): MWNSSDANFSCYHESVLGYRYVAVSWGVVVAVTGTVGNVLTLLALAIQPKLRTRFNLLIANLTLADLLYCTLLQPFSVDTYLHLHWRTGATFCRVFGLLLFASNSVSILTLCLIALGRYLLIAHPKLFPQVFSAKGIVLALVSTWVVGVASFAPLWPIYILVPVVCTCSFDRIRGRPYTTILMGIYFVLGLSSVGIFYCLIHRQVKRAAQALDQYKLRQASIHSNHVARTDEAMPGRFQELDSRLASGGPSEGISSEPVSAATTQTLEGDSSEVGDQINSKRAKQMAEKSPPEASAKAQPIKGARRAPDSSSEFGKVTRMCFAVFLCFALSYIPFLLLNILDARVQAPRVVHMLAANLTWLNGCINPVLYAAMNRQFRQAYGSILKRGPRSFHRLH
Chain of GPR88 (Q9GZN0 whole entry): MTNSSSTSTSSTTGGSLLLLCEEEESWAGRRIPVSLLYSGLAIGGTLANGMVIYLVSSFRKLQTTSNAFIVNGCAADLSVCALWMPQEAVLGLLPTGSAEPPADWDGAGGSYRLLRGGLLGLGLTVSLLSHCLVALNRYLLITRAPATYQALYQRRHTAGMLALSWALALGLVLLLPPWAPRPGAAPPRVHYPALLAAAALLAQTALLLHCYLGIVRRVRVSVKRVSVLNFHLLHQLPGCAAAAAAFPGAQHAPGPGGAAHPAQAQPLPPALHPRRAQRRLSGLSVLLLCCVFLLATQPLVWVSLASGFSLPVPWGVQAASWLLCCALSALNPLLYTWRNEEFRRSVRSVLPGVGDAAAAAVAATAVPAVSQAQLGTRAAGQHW

EC50 (GPR88): > 100 µM
level of intracellular cAMP (GPR84 [1]): decrease
level of intracellular IP accumulation (GPR84 [7]): increase
Compound: CCCCCCCCCCCC1=C(O)C(=O)C=C(O)C1=O [Compound 1, 2,5-Dihydroxy-3-undecyl-[1,4]benzoquinone]
steady-state level of ABCA1 mRNA [2]: increase
steady-state level of MCP-1 mRNA [3]: decrease
steady-state level of IL-8 mRNA [4]: increase
TNFα secretion [5]: no effect
TNFα secretion [6]: no effect

selectivity for GPR84 over GPR88 (GPR88): selective GPR84 agonist
EC50 (GPR88): > 10 µM
EC50 (GPR84 [8]): 48.2 nM
Compound: CCCCCC#CCC#CCC#CCC#CCCCC(=O)O [Compound 2, Icosa-5,8,11,14-tetraynoic acid]

selectivity for GPR84 over GPR88 (GPR88): selective GPR84 agonist
EC50 (GPR88): > 10 µM
EC50 (GPR84 [8]): 30.8 nM
Compound: CCCCC/C=C/C/C=C/C=C/C=C/[C@@H](O)[C@@H](O)CCCC(=O)O [Compound 3, 5S,6R-Dihydroxy-icosa-7,9,11,14-tetraenoic acid]

Compound: IFNγ: proinflammatory cytokine interferon gamma
GPR84 mRNA expression ([9]; primary monocytes, 10 or 100 ng/ml): dose-dependent increase

Compound: Pertussis toxin
effect on stimulation of GTPγS binding to membrane by Compound 1 (GPR84 [10]): inhibit

Compound: TNFα
GPR84 mRNA expression ([9]; primary human monocytes, 10 ng/ml): significant increase
